Structures are written as SMILES.

This assay concerns the target BRD4 (BDI_K57-E168) (Homo sapiens, UniProt O60885). Kind of assay: TR-FRET bromodomain binding assay, BRD4 first bromodomain (BDI). The note with it: mean Ki; 12 nM His tagged BRD4 (BDI_K57-E168), 100 nM Alexa647 probe; Ki calculated from IC50, probe Kd and probe concentration. On the procedure:
A time-resolved fluorescence resonance energy transfer (TR-FRET) assay was used to determine the affinities of compounds of the Examples listed in Table 1 for each bromodomain of BRD4. […] An Alexa647-labeled BET-inhibitor was used as the fluorescent probe in the assay.
Compound dilution series were prepared in DMSO via an approximately 3-fold serial dilution. Compound dilutions were added directly into white, low-volume assay plates (Perkin Elmer Proxiplate 384 Plus# 6008280) using a Labcyte Echo in conjunction with Labcyte Access and Thermo Multidrop CombinL robotics. Compounds were then suspended in eight microliters (μL) of assay buffer (20 mM Sodium Phosphate, pH 6.0, 50 mM NaCl, 1 mM Ethylenediaminetetraacetic acid disodium salt dihydrate, 0.01% Triton X-100, 1 mM DL-Dithiothreitol) containing His-tagged bromodomain, Europium-conjugated anti-His antibody (Invitrogen PV5596) and Alexa-647-conjugated probe.
After a one-hour equilibration at room temperature, TR-FRET ratios were determined using an Envision multilabel plate reader (Ex 340, Em 495/520).
TR-FRET data were normalized to the means of 24 no-compound controls (“high”) and 8 controls containing 1 μM un-labeled probe (“low”). Percent inhibition was plotted as a function of compound concentration and the data were fit with the 4 parameter logistic equation to obtain IC50s. Inhibition constants (Ki) were calculated from the IC50s, probe Kd and probe concentration.
The Ki is the dissociation constant of the complex between target and ligand, obtained from inhibition or displacement. As for `Cn1cc([C@@H]2C[C@@]23C(=O)N(Cc2ccc(N)cc2)c2ccccc23)c2cc(C(=O)NC3CC3)[nH]c2c1=O` (racemic) [Example 28, rac-4-{(1R,2S)-1′-[(4-aminophenyl)methyl]-2′oxo-1′,2′-dihydrospiro[cyclopropane-1,3′-indol]-2-yl}-N-cyclopropyl-6-methyl-7-oxo-6,7-dihydro-1H-pyrrolo [2,3-c]pyridine-2-carboxamide], the Ki was 7430 nM.

On to `CN1C(=O)[C@@]2(C[C@H]2c2cn(C)c(=O)c3[nH]c(C(=O)NC4CC4)cc23)c2cccc(Br)c21` (racemic) [Example 29, rac-4-[(1R,2S)-7′-bromo-1′-methyl-2′-oxo-1′,2′-dihydrospiro[cyclopropane-1,3′-indol]-2-yl]-N-cyclopropyl-6-methyl-7-oxo-6,7-dihydro-1H-pyrrolo[2,3-c]pyridine-2-carboxamide], for which the Ki is 4840 nM.

`CN1C(=O)[C@@]2(C[C@H]2c2cn(C)c(=O)c3[nH]ccc23)c2ccccc21` (racemic) [Example 30, rac-(1R,2S)-1′-methyl-2-(6-methyl-7-oxo-6,7-dihydro-1H-pyrrolo[2,3-c]pyridin-4-yl)spiro[cyclopropane-1,3′-indol]-2′(1H)-one]: the Ki is 3440 nM.

On to `CN1C(=O)[C@@]2(C[C@H]2c2cn(C)c(=O)c3[nH]c(C4CC4)cc23)c2ccccc21` (racemic) [Example 31, rac-(1R,2S)-2-(2-cyclopropyl-6-methyl-7-oxo-6,7-dihydro-1H-pyrrolo[2,3-c]pyridin-4-yl)-1′-methylspiro[cyclopropane-1,3′-indol]-2′(1H)-one], for which the Ki is 811 nM.

Turning to `CN1C(=O)[C@@]2(C[C@H]2c2cn(C)c(=O)c3[nH]c(C4CN(C(=O)OC(C)(C)C)C4)cc23)c2ccccc21` (racemic) [Example 32, rac-tert-butyl 3-{6-methyl-4-[(1R,2S)-1′-methyl-2′oxo-1′,2′-dihydrospiro[cyclopropane-1,3′-indol]-2-yl]-7-oxo-6,7-dihydro-1H-pyrrolo [2,3-c]pyridin-2-yl}azetidine-1-carboxylate], the Ki was 2410 nM.

As for `CN1C(=O)[C@@]2(C[C@H]2c2cn(C)c(=O)c3[nH]c(-c4cnn(C)c4)cc23)c2ccccc21` (racemic) [Example 33, rac-(1R,2S)-1′-methyl-2-[6-methyl-2-(1-methyl-1H-pyrazol-4-yl)-7-oxo-6,7-dihydro-1H-pyrrolo[2,3-c]pyridin-4-yl]spiro[cyclopropane-1,3′-indol]-2′(1H)-one], the Ki was 531 nM.

As for `Cc1nn(C)cc1-c1cc2c([C@@H]3C[C@@]34C(=O)N(C)c3ccccc34)cn(C)c(=O)c2[nH]1` (racemic) [Example 36, rac-(1R,2S)-2-[2-(1,3-dimethyl-1H-pyrazol-4-yl)-6-methyl-7-oxo-6,7-dihydro-1H-pyrrolo[2,3-c]pyridin-4-yl]-1′-methylspiro[cyclopropane-1,3′-indol]-2′(1H)-one], the Ki was above 13000 nM.

With `CN1C(=O)[C@@]2(C[C@H]2c2cn(C)c(=O)c3[nH]c(-c4cc[nH]n4)cc23)c2ccccc21` (racemic) [Example 37, rac-(1R,2S)-1′-methyl-2-[6-methyl-7-oxo-2-(1H-pyrazol-3-yl)-6,7-dihydro-1H-pyrrolo[2,3-c]pyridin-4-yl]spiro[cyclopropane-1,3′-indol]-2′(1H)-one], the Ki is 1250 nM.

`CN1C(=O)[C@@]2(C[C@@H]2c2cn(C)c(=O)c3[nH]c(-c4cc[nH]n4)cc23)c2ccccc21` (racemic) [Example 38, rac-(1R,2R)-1′-methyl-2-[6-methyl-7-oxo-2-(1H-pyrazol-3-yl)-6,7-dihydro-1H-pyrrolo[2,3-c]pyridin-4-yl]spiro[cyclopropane-1,3′-indol]-2′(1H)-one]: the Ki is above 13000 nM.

With `Cc1cc(-c2cc3c([C@@H]4C[C@@]45C(=O)N(C)c4ccccc45)cn(C)c(=O)c3[nH]2)on1` (racemic) [Example 39, rac-(1R,2S)-1′-methyl-2-[6-methyl-2-(3-methyl-1,2-oxazol-5-yl)-7-oxo-6,7-dihydro-1H-pyrrolo[2,3-c]pyridin-4-yl]spiro[cyclopropane-1,3′-indol]-2′(1H)-one], the Ki is 885 nM.

Source of the values: patent publication US20210130346A1, “Bromodomain Inhibitors” (AbbVie Inc., priority 2017, published 2021).
